{"source": "patent US6783772B1", "about": "“Pharmaceutical preparations containing alendronate sodium” (priority 2003, dated 2004)", "origin": "cited, not measured here", "key": {"[1]": {"tested_on": "bone resorption", "conditions": "postmenopausal women; 5, 20 and 40 mg daily oral for six weeks"}, "[2]": {"tested_on": "bone resorption", "conditions": "40 mg once daily for six months"}}}
{"smiles": "NCCCC(O)(P(=O)([O-])O)P(=O)(O)O.O.O.O.[Na+]", "note": "[Alendronate sodium, (4-amino-1-hydroxybutylidene) bisphosphonic acid monosodium salt trihydrate]", "values": [{"measurement": "biochemical changes (urinary calcium, urinary markers of bone collagen degradation)", "setting": "[1]", "value": "dose-dependent inhibition of bone resorption"}, {"measurement": "serum alkaline phosphotase and urinary markers of bone collagen degradation", "setting": "[2]", "value": "highly significant decreases"}, {"measurement": "serum calcium phosphate", "setting": "[2]; clinical trials", "value": "generally mild, transient, decreases"}]}
